The values below come from patent publication US12398154B2, “Azaquinazoline pan-KRas inhibitors” (Mirati Therapeutics, Inc., priority 2020, dated 2025).

The structures appear in SMILES notation.

One experiment concerns the target T1, KRas G13D (Homo sapiens, UniProt P01116, G13D).
T1 construct: Biotinylated KRas (corresponding to amino acids 1-169, produced at Accelegan Inc.); biotin (biotinylated); purchased Accelegan Inc
Description: KRas binding assay (TR-FRET displacement).

The target of another experiment is KRas G12C (Homo sapiens, UniProt P01116, G12C). Description: biochemical.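 Further: binding to KRas assessed by TR-FRET displacement after one hour incubation at room temperature, potency fitted from percent-of-control values.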
Sequence of KRas G12C (P01116 1-169 isoform P01116-2 G12C): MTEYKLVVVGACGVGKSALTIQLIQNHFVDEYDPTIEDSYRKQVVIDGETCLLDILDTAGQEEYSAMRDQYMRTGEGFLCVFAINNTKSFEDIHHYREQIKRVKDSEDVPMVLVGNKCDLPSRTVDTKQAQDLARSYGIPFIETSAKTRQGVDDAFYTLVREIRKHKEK
Another experiment has as its target KRas WT (Homo sapiens, UniProt P01116). Description: biochemical.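 Further: binding to KRas read as TR-FRET displacement after a one-hour room-temperature incubation, IC50 derived from percent-of-control values.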
A further experiment concerns the target KRas G12A (Homo sapiens, UniProt P01116, G12A). Description: biochemical.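 Further: binding to KRas measured by TR-FRET displacement after one hour at room temperature, IC50 from a four-parameter fit of percent-of-control values.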
The target in the next experiment is KRas G12R (Homo sapiens, UniProt P01116, G12R). Description: biochemical.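 Further: TR-FRET displacement assay of compound binding to KRas, read after one hour at room temperature, potency from a four-parameter fit of percent-of-control values.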
Sequence of KRas G12R (P01116 1-169 isoform P01116-2 G12R): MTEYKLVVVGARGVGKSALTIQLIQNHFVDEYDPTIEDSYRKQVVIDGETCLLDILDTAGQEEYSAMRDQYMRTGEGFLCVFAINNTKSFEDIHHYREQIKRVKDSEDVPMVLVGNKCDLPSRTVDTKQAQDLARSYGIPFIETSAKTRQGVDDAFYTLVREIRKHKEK
The target of another experiment is KRas G12V (Homo sapiens, UniProt P01116, G12V). Description: biochemical.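 Further: KRas binding measured by TR-FRET displacement at room temperature, IC50 fitted from percent of control values.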
Sequence of KRas G12V (P01116 1-169 isoform P01116-2 G12V): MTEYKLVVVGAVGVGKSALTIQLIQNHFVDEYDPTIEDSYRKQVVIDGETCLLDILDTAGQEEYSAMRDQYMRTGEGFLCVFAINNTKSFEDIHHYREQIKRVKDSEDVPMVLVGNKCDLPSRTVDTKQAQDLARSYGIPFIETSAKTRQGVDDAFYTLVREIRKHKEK
For a further experiment, the target named is T2, KRas Q61H (Homo sapiens, UniProt P01116, Q61H).
T2 construct: Biotinylated KRas (corresponding to amino acids 1-169, produced at Accelegan Inc.); biotin (biotinylated); purchased Accelegan Inc
T2 sequence (P01116 1-169 isoform P01116-2 Q61H): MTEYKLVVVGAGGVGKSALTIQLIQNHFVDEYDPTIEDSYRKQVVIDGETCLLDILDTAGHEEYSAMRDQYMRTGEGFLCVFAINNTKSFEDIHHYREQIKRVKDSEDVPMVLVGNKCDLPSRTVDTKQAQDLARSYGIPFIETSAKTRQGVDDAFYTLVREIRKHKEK
Description: KRas binding assay (TR-FRET displacement). On the technique in general: TR-FRET usually uses a lanthanide donor and a delayed reading to cut background.

In a further experiment the target is KRas G12S (Homo sapiens, UniProt P01116, G12S). Description: biochemical.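 Further: TR-FRET displacement binding to KRas, read after one hour incubation at room temperature, IC50 from four-parameter fit of percent of control.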
Sequence of KRas G12S (P01116 1-169 isoform P01116-2 G12S): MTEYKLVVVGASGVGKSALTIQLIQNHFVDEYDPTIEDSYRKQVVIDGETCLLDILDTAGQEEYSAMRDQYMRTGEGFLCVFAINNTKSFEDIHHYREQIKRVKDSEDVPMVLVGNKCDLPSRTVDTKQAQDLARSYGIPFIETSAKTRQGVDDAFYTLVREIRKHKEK
A further experiment deals with KRas G12D (Homo sapiens, UniProt P01116, G12D). Description: biochemical.
Sequence of KRas G12D (P01116 1-169 isoform P01116-2 G12D): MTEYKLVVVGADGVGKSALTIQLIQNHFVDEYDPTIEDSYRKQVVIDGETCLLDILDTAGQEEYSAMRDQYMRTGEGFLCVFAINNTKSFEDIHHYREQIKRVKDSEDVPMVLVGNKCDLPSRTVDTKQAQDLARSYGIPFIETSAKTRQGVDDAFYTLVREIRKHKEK

Sequence of KRas G12A (P01116 1-169 isoform P01116-2 G12A): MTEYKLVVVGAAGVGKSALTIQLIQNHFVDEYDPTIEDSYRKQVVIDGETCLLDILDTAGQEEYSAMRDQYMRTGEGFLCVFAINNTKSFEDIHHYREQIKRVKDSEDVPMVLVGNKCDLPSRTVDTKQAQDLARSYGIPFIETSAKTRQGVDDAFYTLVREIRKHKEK
Sequence of KRas WT (P01116 1-169 isoform P01116-2): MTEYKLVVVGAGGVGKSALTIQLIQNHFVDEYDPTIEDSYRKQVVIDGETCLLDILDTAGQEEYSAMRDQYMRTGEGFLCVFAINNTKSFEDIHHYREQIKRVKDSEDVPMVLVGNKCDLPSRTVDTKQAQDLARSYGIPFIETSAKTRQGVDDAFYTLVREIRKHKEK
T1 sequence (P01116 1-169 isoform P01116-2 G13D): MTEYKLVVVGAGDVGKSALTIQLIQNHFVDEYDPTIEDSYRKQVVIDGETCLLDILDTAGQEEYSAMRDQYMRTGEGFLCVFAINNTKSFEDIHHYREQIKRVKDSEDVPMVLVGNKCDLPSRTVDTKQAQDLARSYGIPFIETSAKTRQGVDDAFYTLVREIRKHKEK

`NS(=O)(=O)CC1CCCN(c2nc(OCC34CCCN3CCC4)nc3c(F)c(-c4cccc5cccc(F)c45)ncc23)C1` (stereo not drawn) [Example 221, 1-(1-(8-fluoro-7-(8-fluoronaphthalen-1-yl)-2-((tetrahydro-1H-pyrrolizin-7a(5H)-yl)methoxy)pyrido[4,3-d]pyrimidin-4-yl)piperidin-3-yl)methanesulfonamide]: the 50% inhibitory concentration (IC50) (usually the point on the concentration scale where inhibition reaches its midpoint) at KRas G13D was 308 nM; on KRas G12C it was 0.498 µM; against KRas WT, 0.284 µM; against KRas G12A it was 0.271 µM; against KRas G12R it was 0.191 µM; on KRas G12V, 0.556 µM. For the same molecule, the IC50 at KRas Q61H stood at 231 nM; on KRas G12S it was 0.313 µM; at KRas G12D, 0.586 µM.
As for `Fc1c(-c2cccc3cccc(F)c23)ncc2c(NCc3cnn4c3OCCC4)nc(OCC34CCCN3CCC4)nc12` [Example 222, N-((6,7-dihydro-5H-pyrazolo[5,1-b][1,3]oxazin-3-yl)methyl)-8-fluoro-7-(8-fluoronaphthalen-1-yl)-2-((tetrahydro-1H-pyrrolizin-7a(5H)-yl)methoxy)pyrido[4,3-d]pyrimidin-4-amine], the IC50 turned out to be 70100 nM on KRas G13D; 8.98 µM against KRas G12C; 35.9 µM at KRas WT; 17.8 µM at KRas G12A; 31.2 µM against KRas G12R; 18.2 µM at KRas G12V. The IC50 at KRas Q61H was 52900 nM; against KRas G12S it was 26.9 µM; against KRas G12D it was at least 100 µM.
`CN(Cc1c[nH]c2ncccc12)c1nc(OCC23CCCN2CCC3)nc2c(F)c(-c3cccc4cccc(F)c34)ncc12` [Example 223, N-((1H-pyrrolo[2,3-b]pyridin-3-yl)methyl)-8-fluoro-7-(8-fluoronaphthalen-1-yl)-N-methyl-2-((tetrahydro-1H-pyrrolizin-7a(5H)-yl)methoxy)pyrido[4,3-d]pyrimidin-4-amine]: the IC50 at KRas G13D was found to be 6870 nM; against KRas G12C, 1.19 µM; at KRas WT it was 5.6 µM; against KRas G12A it was 1.36 µM; against KRas G12R, 0.665 µM; against KRas G12V, 0.93 µM. Besides, the IC50 at KRas Q61H was found to be 8650 nM; against KRas G12S it was 1.8 µM; against KRas G12D, 21.1 µM.
As to `O=C1NC2(CCN(c3nc(OCC45CCCN4CCC5)nc4c(F)c(-c5cccc6cccc(F)c56)ncc34)CC2)CO1` [Example 224, 8-(8-fluoro-7-(8-fluoronaphthalen-1-yl)-2-((tetrahydro-1H-pyrrolizin-7a(5H)-yl)methoxy)pyrido[4,3-d]pyrimidin-4-yl)-3-oxa-1,8-diazaspiro[4.5]decan-2-one], the IC50 is 4830 nM at KRas G13D; 11.7 µM on KRas G12C; 6.28 µM against KRas WT; 8.45 µM against KRas G12A; 4.02 µM on KRas G12R; 8.48 µM against KRas G12V. Also, the IC50 was 9670 nM at KRas Q61H, 7.11 µM against KRas G12S and 64.8 µM against KRas G12D.
For `NC(=O)CCNc1nc(OCC23CCCN2CCC3)nc2c(F)c(-c3cccc4cccc(F)c34)ncc12` [Example 225, 3-((8-fluoro-7-(8-fluoronaphthalen-1-yl)-2-((hexahydro-1H-pyrrolizin-7a-yl)methoxy)pyrido[4,3-d]pyrimidin-4-yl)amino)propanamide], the IC50 at KRas G13D came out at 23500 nM; on KRas G12C it was 8.12 µM; against KRas WT it was 16.6 µM; against KRas G12A, 14.9 µM; at KRas G12R, 9.39 µM; on KRas G12V, 6.24 µM. The figures for the IC50 on KRas Q61H, at KRas G12S and at KRas G12D were 26100 nM, 9.9 µM and 21.7 µM, respectively.
Regarding `O=C1NC(=O)C2CN(c3nc(OCC45CCCN4CCC5)nc4c(F)c(-c5cccc6cccc(F)c56)ncc34)CC12` (stereo not drawn) [Example 228, 5-(8-fluoro-7-(8-fluoronaphthalen-1-yl)-2-((hexahydro-1H-pyrrolizin-7a-yl)methoxy)pyrido[4,3-d]pyrimidin-4-yl)tetrahydropyrrolo[3,4-c]pyrrole-1,3(2H,3aH)-dione], the IC50 was 465 nM at KRas G13D; 1.02 µM on KRas G12C; 2.7 µM on KRas WT; 1.21 µM on KRas G12A; 0.224 µM at KRas G12R; 0.148 µM against KRas G12V. In addition, the half-inhibitory concentration (IC50) was 822 nM at KRas Q61H, 0.202 µM on KRas G12S and 0.147 µM on KRas G12D.
Consider `O=c1[nH][nH]cc1CNc1nc(OCC23CCCN2CCC3)nc2c(F)c(-c3cccc4cccc(F)c34)ncc12` [Example 230, 4-(((8-fluoro-7-(8-fluoronaphthalen-1-yl)-2-((hexahydro-1H-pyrrolizin-7a-yl)methoxy)pyrido[4,3-d]pyrimidin-4-yl)amino)methyl)-1H-pyrazol-3(2H)-one], for which the IC50 was found to be 35500 nM on KRas G13D; 10.6 µM against KRas G12C; 28.4 µM against KRas WT; 11.3 µM against KRas G12A; 9.85 µM on KRas G12R; 7.99 µM against KRas G12V. Further, the IC50 on KRas Q61H amounted to 23300 nM; on KRas G12S, 19.7 µM; against KRas G12D, 38.8 µM.
For the molecule `O=c1cc(CNc2nc(OCC34CCCN3CCC4)nc3c(F)c(-c4cccc5cccc(F)c45)ncc23)[nH][nH]1` [Example 231, 5-(((8-fluoro-7-(8-fluoronaphthalen-1-yl)-2-((hexahydro-1H-pyrrolizin-7a-yl)methoxy)pyrido[4,3-d]pyrimidin-4-yl)amino)methyl)-1H-pyrazol-3(2H)-one], the IC50 on KRas G13D came out at 61500 nM; against KRas G12C, 29.6 µM; against KRas WT, 49.4 µM; against KRas G12A, 52.1 µM; against KRas G12R it was 8.68 µM; on KRas G12V, 24.6 µM. In addition, the IC50 at KRas Q61H came to 62300 nM; on KRas G12S, 31.6 µM; against KRas G12D it was 97.9 µM.
Regarding `Fc1c(-c2cccc3cccc(F)c23)ncc2c(N3CCCC4(CCC4)C3)nc(OCC34CCCN3CCC4)nc12` [Example 232, 8-fluoro-7-(8-fluoronaphthalen-1-yl)-2-((hexahydro-1H-pyrrolizin-7a-yl)methoxy)-4-(6-azaspiro[3.5]nonan-6-yl)pyrido[4,3-d]pyrimidine], the IC50 came to 18000 nM on KRas G13D; 13.6 µM at KRas G12C; 19.2 µM against KRas WT; 17.3 µM at KRas G12A; 9.99 µM on KRas G12R; 7.78 µM against KRas G12V. Besides, the IC50 on KRas Q61H was found to be 25900 nM; against KRas G12S it was 19.4 µM; on KRas G12D it was 11.9 µM.
`OC1CCC12CCCN(c1nc(OCC34CCCN3CCC4)nc3c(F)c(-c4cccc5cccc(F)c45)ncc13)C2` (stereo not drawn) [Example 233, 6-(8-fluoro-7-(8-fluoronaphthalen-1-yl)-2-((tetrahydro-1H-pyrrolizin-7a(5H)-yl)methoxy)pyrido[4,3-d]pyrimidin-4-yl)-6-azaspiro[3.5]nonan-1-ol]: the IC50 was 7380 nM on KRas G13D; 6.15 µM against KRas G12C; 4.3 µM against KRas WT; 2.65 µM at KRas G12A; 5.56 µM on KRas G12R; 4.64 µM against KRas G12V. For the same molecule, the IC50 on KRas Q61H came out at 5350 nM; at KRas G12S, 7.45 µM; at KRas G12D, 6.7 µM.
For the molecule `Fc1c(-c2cccc3cccc(F)c23)ncc2c(N3CCCC4(CC(F)C4)C3)nc(OCC34CCCN3CCC4)nc12` (stereo not drawn) [Example 234, 8-fluoro-4-(2-fluoro-6-azaspiro[3.5]nonan-6-yl)-7-(8-fluoronaphthalen-1-yl)-2-((hexahydro-1H-pyrrolizin-7a-yl)methoxy)pyrido[4,3-d]pyrimidine], the IC50 stood at 1980 nM on KRas G13D; 1.62 µM against KRas G12C; 2.64 µM on KRas WT; 2.3 µM against KRas G12A; 1.85 µM at KRas G12R; 1.6 µM at KRas G12V. In addition, the values for the IC50 at KRas Q61H, on KRas G12S and against KRas G12D were 2590 nM, 1.76 µM and 2.02 µM, respectively.
Turning to `OC1CC2(CCCN(c3nc(OCC45CCCN4CCC5)nc4c(F)c(-c5cccc6cccc(F)c56)ncc34)C2)C1` (stereo not drawn) [Example 235, 6-(8-fluoro-7-(8-fluoronaphthalen-1-yl)-2-((hexahydro-1H-pyrrolizin-7a-yl)methoxy)pyrido[4,3-d]pyrimidin-4-yl)-6-azaspiro[3.5]nonan-2-ol], the IC50 at KRas G13D came to 2710 nM; against KRas G12C, 1.65 µM; against KRas WT, 2.65 µM; at KRas G12A, 2.15 µM; against KRas G12R it was 2.87 µM; on KRas G12V it was 1.7 µM. Also, the values for the IC50 at KRas Q61H, against KRas G12S and against KRas G12D were 3360 nM, 2.01 µM and 2.66 µM, respectively.
Take `O=C1CC(CNc2nc(OCC34CCCN3CCC4)nc3c(F)c(-c4cccc5cccc(F)c45)ncc23)C(=O)N1` (stereo not drawn) [Example 236, 3-(((8-fluoro-7-(8-fluoronaphthalen-1-yl)-2-((hexahydro-1H-pyrrolizin-7a-yl)methoxy)pyrido[4,3-d]pyrimidin-4-yl)amino)methyl)pyrrolidine-2,5-dione]: the IC50 at KRas G13D was found to be 2460 nM; at KRas G12C, 2.04 µM; on KRas WT it was 3.5 µM; against KRas G12A, 3.39 µM; against KRas G12R, 3.35 µM; against KRas G12V, 0.623 µM. Further, the IC50 at KRas Q61H was 4440 nM; against KRas G12S, 0.897 µM; on KRas G12D it was 2.33 µM.
